According to PubChem BioAssay (NCI):
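Test compounds were applied to cells in 96-well plates for 48 hours at 5 doses. GI50 = concentration required for 50% inhibition of growth. TGI is the concentration that stops growth completely.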

Experiments:
Test in all cases: DTP human tumour cell line panel, 48 h
KM12 colon = test system: KM12 colon
UO-31 renal = test system: UO-31 renal
RXF 393 renal = test system: RXF 393 renal
SK-MEL-5 melanoma = test system: SK-MEL-5 melanoma
HS 578T breast = test system: HS 578T breast
MDA-MB-468 breast = test system: MDA-MB-468 breast
RPMI-8226 leukemia = test system: RPMI-8226 leukemia
HCT-116 colon = test system: HCT-116 colon
K-562 leukemia = test system: K-562 leukemia
U251 CNS = test system: U251 CNS
ACHN renal = test system: ACHN renal
HCC-2998 colon = test system: HCC-2998 colon
COLO 205 colon = test system: COLO 205 colon
CCRF-CEM leukemia = test system: CCRF-CEM leukemia
SNB-19 CNS = test system: SNB-19 CNS
SW-620 colon = test system: SW-620 colon
PC-3 prostate = test system: PC-3 prostate
NCI-H522 lung = test system: NCI-H522 lung
T-47D breast = test system: T-47D breast
SK-OV-3 ovarian = test system: SK-OV-3 ovarian
UACC-257 melanoma = test system: UACC-257 melanoma
UACC-62 melanoma = test system: UACC-62 melanoma
MOLT-4 leukemia = test system: MOLT-4 leukemia
SF-539 CNS = test system: SF-539 CNS
NCI-H460 lung = test system: NCI-H460 lung
M14 melanoma = test system: M14 melanoma
OVCAR-4 ovarian = test system: OVCAR-4 ovarian
HT29 colon = test system: HT29 colon
LOX IMVI melanoma = test system: LOX IMVI melanoma
A549 NSCLC = test system: A549 NSCLC
SN12C renal = test system: SN12C renal
NCI-H226 lung = test system: NCI-H226 lung
SF-268 CNS = test system: SF-268 CNS
TK-10 renal = test system: TK-10 renal
HCT-15 colon = test system: HCT-15 colon
OVCAR-5 ovarian = test system: OVCAR-5 ovarian
HL-60(TB) leukemia = test system: HL-60(TB) leukemia
CAKI-1 renal = test system: CAKI-1 renal
NCI-H23 lung = test system: NCI-H23 lung
OVCAR-8 ovarian = test system: OVCAR-8 ovarian
HOP-92 NSCLC = test system: HOP-92 NSCLC
MCF7 breast = test system: MCF7 breast
SK-MEL-28 melanoma = test system: SK-MEL-28 melanoma
A498 renal = test system: A498 renal
SNB-75 CNS = test system: SNB-75 CNS
SK-MEL-2 melanoma = test system: SK-MEL-2 melanoma
EKVX NSCLC = test system: EKVX NSCLC
SF-295 CNS = test system: SF-295 CNS
SR leukemia = test system: SR leukemia
MDA-MB-231 breast = test system: MDA-MB-231 breast
IGROV1 ovarian = test system: IGROV1 ovarian
786-0 renal = test system: 786-0 renal
MALME-3M melanoma = test system: MALME-3M melanoma
HOP-62 NSCLC = test system: HOP-62 NSCLC
DU-145 prostate = test system: DU-145 prostate
OVCAR-3 ovarian = test system: OVCAR-3 ovarian
BT-549 breast = test system: BT-549 breast
MDA-MB-435 = test system: MDA-MB-435

COc1ccc(NC2=C(I)C(=O)C(C)=C(C)C2=O)cc1
GI50 (KM12 colon): 6.96 µM | TGI (KM12 colon): 42 µM | GI50 (UO-31 renal): 6.03 µM | TGI (UO-31 renal): 19.8 µM | GI50 (RXF 393 renal): 3.6 µM | TGI (RXF 393 renal): 14.8 µM | GI50 (SK-MEL-5 melanoma): 4.74 µM | TGI (SK-MEL-5 melanoma): 18.2 µM | GI50 (HS 578T breast): 14.5 µM | TGI (HS 578T breast): 50.2 µM | GI50 (MDA-MB-468 breast): 0.416 µM | TGI (MDA-MB-468 breast): 2.49 µM | GI50 (RPMI-8226 leukemia): 3.08 µM | TGI (RPMI-8226 leukemia): 20.2 µM | GI50 (HCT-116 colon): 2.93 µM | TGI (HCT-116 colon): 10.4 µM | GI50 (K-562 leukemia): 2.99 µM | TGI (K-562 leukemia): > 100 µM | GI50 (U251 CNS): 11.5 µM | TGI (U251 CNS): 24.7 µM | GI50 (ACHN renal): 4.61 µM | TGI (ACHN renal): 17.5 µM | GI50 (HCC-2998 colon): 16.7 µM | TGI (HCC-2998 colon): 33.5 µM | GI50 (COLO 205 colon): 14.8 µM | TGI (COLO 205 colon): 28 µM | GI50 (CCRF-CEM leukemia): 1.36 µM | TGI (CCRF-CEM leukemia): 35.4 µM | GI50 (SNB-19 CNS): 15.4 µM | TGI (SNB-19 CNS): 34.1 µM | GI50 (SW-620 colon): 11.7 µM | TGI (SW-620 colon): 29.2 µM | GI50 (PC-3 prostate): 3.42 µM | TGI (PC-3 prostate): > 100 µM | GI50 (NCI-H522 lung): 6.54 µM | TGI (NCI-H522 lung): 21 µM | GI50 (T-47D breast): 1.98 µM | TGI (T-47D breast): 16.3 µM | GI50 (SK-OV-3 ovarian): 18 µM | TGI (SK-OV-3 ovarian): 62.9 µM | GI50 (UACC-257 melanoma): 2.42 µM | TGI (UACC-257 melanoma): 8 µM | GI50 (UACC-62 melanoma): 9.68 µM | TGI (UACC-62 melanoma): 23.8 µM | GI50 (MOLT-4 leukemia): 0.625 µM | TGI (MOLT-4 leukemia): 32.6 µM | GI50 (SF-539 CNS): 2.5 µM | TGI (SF-539 CNS): 7.23 µM | GI50 (NCI-H460 lung): 15.7 µM | TGI (NCI-H460 lung): 32.8 µM | GI50 (M14 melanoma): 15 µM | TGI (M14 melanoma): 28.7 µM | GI50 (OVCAR-4 ovarian): 3.98 µM | TGI (OVCAR-4 ovarian): 15.2 µM | GI50 (HT29 colon): 18.2 µM | TGI (HT29 colon): 48.8 µM | GI50 (LOX IMVI melanoma): 2.37 µM | TGI (LOX IMVI melanoma): 8.8 µM | GI50 (A549 NSCLC): 16.9 µM | TGI (A549 NSCLC): 39 µM | GI50 (SN12C renal): 4.04 µM | TGI (SN12C renal): 15.5 µM | GI50 (NCI-H226 lung): 12.5 µM | TGI (NCI-H226 lung): 28.9 µM | GI50 (SF-268 CNS): 12.3 µM | TGI (SF-268 CNS): 55.6 µM | GI50 (TK-10 renal): 17 µM | TGI (TK-10 renal): 37.2 µM | GI50 (HCT-15 colon): 13.5 µM | TGI (HCT-15 colon): 27.9 µM | GI50 (OVCAR-5 ovarian): 11.7 µM | TGI (OVCAR-5 ovarian): 25.6 µM | GI50 (HL-60(TB) leukemia): 0.341 µM | TGI (HL-60(TB) leukemia): 1.54 µM | GI50 (CAKI-1 renal): 3.89 µM | TGI (CAKI-1 renal): 22 µM | GI50 (NCI-H23 lung): 4.11 µM | TGI (NCI-H23 lung): 17.6 µM | GI50 (OVCAR-8 ovarian): 2.26 µM | TGI (OVCAR-8 ovarian): 6.54 µM | GI50 (HOP-92 NSCLC): 7.46 µM | TGI (HOP-92 NSCLC): 26.2 µM | GI50 (MCF7 breast): 2.71 µM | TGI (MCF7 breast): 10 µM | GI50 (SK-MEL-28 melanoma): 14.3 µM | TGI (SK-MEL-28 melanoma): 28.9 µM | GI50 (A498 renal): 24.6 µM | TGI (A498 renal): 68.3 µM | GI50 (SNB-75 CNS): 15.9 µM | TGI (SNB-75 CNS): 35.6 µM | GI50 (SK-MEL-2 melanoma): 3.14 µM | TGI (SK-MEL-2 melanoma): 12.4 µM | GI50 (EKVX NSCLC): 4.25 µM | TGI (EKVX NSCLC): 16.7 µM | GI50 (SF-295 CNS): 13.9 µM | TGI (SF-295 CNS): 28.4 µM | GI50 (SR leukemia): 1.07 µM | TGI (SR leukemia): > 100 µM | GI50 (MDA-MB-231 breast): 2.37 µM | TGI (MDA-MB-231 breast): 8.48 µM | GI50 (IGROV1 ovarian): 4.37 µM | TGI (IGROV1 ovarian): 17.3 µM | GI50 (786-0 renal): 8.56 µM | TGI (786-0 renal): 27.4 µM | GI50 (MALME-3M melanoma): 11.6 µM | TGI (MALME-3M melanoma): 23.9 µM | GI50 (HOP-62 NSCLC): 14.9 µM | TGI (HOP-62 NSCLC): 36.6 µM | GI50 (DU-145 prostate): 16.1 µM | TGI (DU-145 prostate): 30.7 µM | GI50 (OVCAR-3 ovarian): 2.75 µM | TGI (OVCAR-3 ovarian): 9.45 µM | GI50 (BT-549 breast): 12.4 µM | TGI (BT-549 breast): 25.8 µM | GI50 (MDA-MB-435): 1.82 µM | TGI (MDA-MB-435): 3.37 µM
